These results are taken from patent US10028957B2, “Depot formulations” (DURECT CORPORATION, priority 2007, dated 2018).

The series can be described thus: Solvent capacity experiments (solvent added until single phase persists one week). In kind it is physicochemical. The settings on record: fixed PLGA/SAIB ratio, room temperature, weight percent of total final weight.
Setting [1] is: Example 7, PLGA 4700 Da, 65/35, hexanediol initiated.
Setting [2] is: Example 8, PLGA 6600 Da, 65/35, dodecanol initiated.

On to `OCc1ccccc1` [BA, benzyl alcohol], for which the “amount of solvent needed for a single phase solution that remained single phase for one week” value was found to be 26.44 wt % under setting [1] and 19.70 wt % under setting [2].
As to `C[S+](C)[O-]` [DMSO, dimethylsulfoxide], the “amount of solvent needed for a single phase solution that remained single phase for one week” value is, setting by setting: under setting [1], 42.64 wt %; under setting [2], 31.22 wt %.
